Earlier results in patent US5484911A, “Nucleoside 5'-diphosphate conjugates of ether lipids” (Health Research, Inc., priority 1993, dated 1996).

Tests used:
L1210 and P388 leukemia = conditions: mouse, in vivo; cited from earlier work
[1] = test system: myelomonocytic WEHI-3B leukemia; conditions: mouse, in vivo; cited from earlier work
[2] = test system: colon 26 carcinoma, M5076 sarcoma, Lewis lung carcinoma, and C-1300 neuroblastoma; conditions: mouse, in vivo; cited from earlier work
[3] = test system: M5076 sarcoma and Lewis lung carcinoma; conditions: mouse, in vivo; cited from earlier work
[4] = test system: human colorectal cancer xenografts and PSN-1 human pancreatic tumor; conditions: mouse, in vivo; cited from earlier work
[5] = test system: rat mammary carcinoma SMT-2A; conditions: alone and in combination with VP-16; cited from earlier work
[6] = mouse, in vivo; cited from earlier work
L1210 leukemic cells = conditions: cited from earlier work
herpes simplex = conditions: cited from earlier work
respiratory syncytial = conditions: cited from earlier work
[7] = test system: biosynthesis of phosphatidylinositol, phosphatidylglycerol or diphosphatidylglycerol; conditions: rat liver subcellular fractions; release of nucleoside 5'-monophosphates; cited from earlier work

CCCCCCCCCCCCCCCCCCSCC(COP(=O)(O)OP(=O)(O)OC[C@H]1O[C@@H](n2ccc(N)nc2=O)[C@@H](O)[C@@H]1O)OC(=O)CCCCCCCCCCCCCCC (mixture of isomers) [Cytoros]
effectiveness among ara-C conjugates tested (L1210 and P388 leukemia): the most effective of those tested | efficacy compared with ara-CDP-L-dipalmitin [1]: considerably higher efficacy than ara-CDP-L-dipalmitin | therapeutic activity [2]: rather broad spectrum of therapeutic activity | antimetastatic activity [3]: displayed antimetastic activity | antitumor activity [4]: strong antitumor activity | primary and lymph node metastasis [5]: markedly retarded both primary and lymph node metastasis | plasma ara-C concentration and intracellular retention of ara-CTP compared to ara-C [6]: more prolonged plasma ara-C concentration and intracellular retention of ara-CTP | cytotoxicity to L1210 leukemic cells compared to normal mouse bone marrow cells (L1210 leukemic cells): selective cytotoxicity to L1210 leukemic cells

CCCCCCCCCCCCCCCCCCCCCCO [Example 1-Docosanol, 1-Docosanol]
herpes simplex viral replication (herpes simplex): inhibits herpes simplex and respiratory syncytial viral replication | respiratory syncytial viral replication (respiratory syncytial): inhibits herpes simplex and respiratory syncytial viral replication

AZT diphosphate diglyceride [AZTDP-DG]
substitution for CDP-DG in phospholipid biosynthesis [7]: can substitute to varying extents for CDP-DG
